From paper PMC2965873, “Phase I and pharmacological study of the broad-spectrum tyrosine kinase inhibitor JNJ-26483327 in patients with advanced solid tumours” (British Journal of Cancer, 2010)

Columns and labels:
advanced solid tumours = experiment: anti-tumour activity (RECIST); assay type: in vivo, human; settings: 19 patients
Procedure: (§1) Prior to therapy, a complete medical history was taken and a physical examination was performed. A complete blood cell (CBC) count, WBC count and differential and serum biochemistry including lipid profile and coagulation tests were performed, as were urinalysis, a 12-lead electrocardiogram (ECG) and MUGA scanning. Weekly evaluations during the first cycle, every other week during the second cycle and monthly thereafter included history, physical examination, adverse event assessment, CBC, WBC+differential, serum chemistry, ECG and urinalysis. An ECG was performed predose and 1, 2, 4, 8 and 24 h postdose on days 1 and 28. Follow-up of LVEF by MUGA scanning was performed at the end of the first and second cycle. Tumour measurements were performed at baseline and during every other cycle. Response was assessed according to RECIST ([Therasse et al, 2000]).

[1] = system: patients with advanced solid tumours; experiment: phase I safety, DLT and MTD; assay type: in vivo
Procedure: JNJ-26483327 was supplied by Johnson & Johnson Pharmaceutical Research and Development, Beerse, Belgium as 10 or […] oral solution for doses ⩽1200 mg, or capsules of 50, 100 or 300 mg for doses ⩾1500 mg. Medication was taken in combination with food BID with 12 h intervals. A cycle was defined as 28 days of treatment.
The study followed an accelerated-escalation design. Initial cohorts consisted of one patient with dose doublings between cohorts in the absence of grade ⩾2 toxicity according to the National Cancer Institute Common Toxicity Criteria version 3.0 during the first cycle (http://ctep.cancer.gov/protocolDevelopment/electronic_applications/docs/ctcaev3.pdf). Once grade ⩾2 considered drug-related toxicity occurred during the first cycle, two additional patients were enrolled at that dose level with subsequent cohorts in accordance with a conventional dose-escalation (3+3) model. DLT was defined as any grade 3 or 4 non-haematological toxicity, except for nausea, vomiting or diarrhoea responsive to treatment; grade 3 skin rash/acne responsive to treatment, alopecia and isolated grade 3 GGT elevations; need for loperamide for >7 days to treat or prevent grade ⩾2 diarrhoea; need for continuous administration of 5HT-3 antagonists for >7 days to treat or prevent grade ⩾2 nausea or vomiting; a relative decrease of LVEF on MUGA scan of >20% compared with baseline; any grade 4 haematological toxicity or treatment interruptions of >14 days for grade ⩾2 toxicity in cycle 1.
If during the conventional escalation stage no DLT occurred, the dose for the next cohort was incremented with 20–100%. If DLT was observed during cycle 1 in one of three patients, an additional three patients were enrolled at that dose level. If ⩾2 out of 6 patients experienced DLT, the MTD was exceeded and three more patients were enrolled at the next lower dose level, unless already six patients had been accrued at that dose. The MTD was defined as the highest dose at which less than one-third of the patients experienced DLT.
as §1

Her4 = system: Her4; set-up: method as in Johnson & Johnson, data on file; settings: ref Johnson & Johnson, data on file; read-out: IC50 range; cited from earlier work
RET-receptor kinase = biological target: RET-receptor kinase; set-up: method as in Johnson & Johnson, data on file; settings: in vitro; ref Johnson & Johnson, data on file; cited from earlier work
c-Src = system: c-Src; set-up: method as in Johnson & Johnson, data on file; settings: ref Johnson & Johnson, data on file; cited from earlier work
[2] = set-up: method as in Johnson & Johnson, data on file; settings: preclinical studies; ref Johnson & Johnson, data on file; cited from earlier work
Her2 = system: Her2; set-up: method as in Johnson & Johnson, data on file; settings: ref Johnson & Johnson, data on file; cited from earlier work
Lyn = system: Lyn; set-up: method as in Johnson & Johnson, data on file; settings: Src family; ref Johnson & Johnson, data on file; read-out: IC50 range; cited from earlier work
[3] = system: mutationally activated EGFR kinases; set-up: method as in Johnson & Johnson, data on file; settings: in vitro, several mutants; ref Johnson & Johnson, data on file; cited from earlier work
[4] = set-up: method as in Johnson & Johnson, data on file; settings: ref Johnson & Johnson, data on file; cited from earlier work
healthy male volunteers = system: healthy male volunteers; set-up: method as in preceding study in healthy male volunteers; settings: single doses up to and including 200 mg; ref preceding study in healthy male volunteers; cited from earlier work
EGFR kinase = biological target: EGFR kinase; set-up: method as in Johnson & Johnson, data on file; settings: in vitro; ref Johnson & Johnson, data on file; cited from earlier work
xenograft mouse models = system: xenograft mouse models; set-up: method as in Johnson & Johnson, data on file; settings: preclinical studies; ref Johnson & Johnson, data on file; cited from earlier work
Yes = system: Yes; set-up: method as in Johnson & Johnson, data on file; settings: Src family; ref Johnson & Johnson, data on file; read-out: IC50 range; cited from earlier work
[5] = phase I plasma pharmacokinetics; assay type: in vivo, human
Procedure: For pharmacokinetic analysis, blood samples (3 ml) were collected before dosing and 0.5, 1, 2, 3, 4, 6, 8 and 24 h after drug administration on days 1 and 28 and predose, 0.5, 1, 2, 4 and 6 h postdose on day 15 of the first cycle and day 28 of the second cycle. Furthermore, trough PK samples were taken before drug administration on days 8 and 22. Blood samples were collected and protected from light in EDTA-Vacutainer® tubes and plasma was separated by centrifugation and stored at −20°C within 2 h of collection. Plasma concentrations of JNJ-26483327 were determined by validated, selective and sensitive liquid chromatography–mass spectrometry bioanalytical method.
Graphical analysis was performed using dose-normalised Cmax as well as AUC of days 1 and 28 for exploration of dose proportionality across doses.
The pharmacokinetic analysis and descriptive statistics were performed using PKAA 2.00 (developed for J&JPRD). PKAA 2.00 uses WinNonLin 5.2.1. Elimination rate constants (λz) were calculated as the negative of the slope of the terminal log-linear segment of the plasma concentration–time curves. The range of data used for each subject and dose were determined by visual inspection of a semi-logarithmic plot of concentration vs time. At least three data points were used to estimate λz. All PK calculations and figures used validated software.

Fyn = system: Fyn; set-up: method as in Johnson & Johnson, data on file; settings: Src family; ref Johnson & Johnson, data on file; read-out: IC50 range; cited from earlier work
Flt3 = system: Flt3; set-up: method as in Johnson & Johnson, data on file; settings: ref Johnson & Johnson, data on file; cited from earlier work
[6] = 800 mg BID, day 1, n=3, mean±s.d.
[7] = 800 mg BID, day 28 (steady state), n=2, mean
[8] = 1200 mg BID, day 1, n=3, mean±s.d.
[9] = 1200 mg BID, day 28 (steady state), n=2, mean
[10] = 1500 mg BID, day 1, n=6, mean±s.d.
[11] = 1500 mg BID, day 28 (steady state), n=6, mean±s.d.
[12] = 2100 mg BID, day 1, n=3, mean±s.d.
[13] = 2100 mg BID, day 28 (steady state), n=2, mean

SMILES: COc1cc2ncnc3c2cc1OCCCCCN(C)Cc1ccc(Br)cc1N3 [JNJ-26483327]
- patients with stable disease lasting more than two cycles (advanced solid tumours; 100–2100 mg BID): six
- patients with stable disease (advanced solid tumours; more than two cycles): 32%
- Anaemia: patients, Total % ([1]; in vivo): 15.8%
- Anaemia: patients, Total n ([1]; in vivo): 3
- Anorexia: patients, Total % ([1]; in vivo): 42.1%
- Constipation: patients, Total % ([1]; in vivo): 10.5%
- Constipation: patients, Total n ([1]; in vivo): 2
- Diarrhoea: patients, Total n ([1]; in vivo): 12
- Dry skin: patients, Total % ([1]; in vivo): 10.5%
- Dry skin: patients, Total n ([1]; in vivo): 2
- Dyspepsia: patients, Total % ([1]; in vivo): 10.5%
- Dyspepsia: patients, Total n ([1]; in vivo): 2
- Dysphonia: patients, Total % ([1]; in vivo): 15.8%
- Dysphonia: patients, Total n ([1]; in vivo): 3
- Fatigue: patients, Total % ([1]; in vivo): 47.4%
- Fatigue: patients, Total n ([1]; in vivo): 9
- Nausea: patients, Total % ([1]; in vivo): 68.4%
- Nausea: patients, Total n ([1]; in vivo): 13
- Pain: patients, Total % ([1]; in vivo): 10.5%
- Pain: patients, Total n ([1]; in vivo): 2
- Rash: patients, Total % ([1]; in vivo): 57.9%
- Rash: patients, Total n ([1]; in vivo): 11
- Skin discolouration: patients, Total % ([1]; in vivo): 5.3%
- Skin discolouration: patients, Total n ([1]; in vivo): 1
- Skin exfoliation (palms): patients, Total % ([1]; in vivo): 5.3%
- Skin exfoliation (palms): patients, Total n ([1]; in vivo): 1
- Vomiting: patients, Total % ([1]; in vivo): 52.6%
- Vomiting: patients, Total n ([1]; in vivo): 10
- Weight decreased: patients, Total % ([1]; in vivo): 10.5%
- Weight decreased: patients, Total n ([1]; in vivo): 2
- gastrointestinal side effects, incidence ([1]; in vivo): 95%
- hypertension ([1]; in vivo): no hypertension was noted
- patients with grade 2 anaemia ([1]; in vivo): three
- skin toxicity, overall incidence ([1]; in vivo): 68%
- subjects with a significant decrease in LVEF ([1]; in vivo): None
- recommended dose for further studies (phase 2 dose) ([1]; in vivo, po): 1500 mg BID
- maximum tolerated dose (MTD) ([1]; oral, continuous, 28-day cycles): 1500 mg BID
- IC50 (Her4): 11 to 99 nM
- IC50 (RET-receptor kinase): < 10 nM
- IC50 (c-Src): 100 to 1000 nM
- tissue distribution profile [2]: passage of the blood–brain barrier
- IC50 (Her2): 100 to 1000 nM
- IC50 (Lyn): 11 to 99 nM
- IC50 [3]: < 10 nM
- oral bioavailability [4]: ~80%
- safety and tolerability (healthy male volunteers): safe and well tolerated
- IC50 (EGFR kinase): < 10 nM
- anti-cancer activity (xenograft mouse models): anti-cancer activity was observed
- IC50 (Yes): 11 to 99 nM
- CL/F [5, 6]: 86.3 ± 33.5 L/h
- Cmax [5, 6]: 2210 ± 593 ng/mL
- Vdz/F [5, 6]: 1021 ± 401 L
- t1/2 [5, 6]: 8.4 ± 1.8 h
- tmax ([5]; 800 mg BID, day 1, n=3, median (min–max)): 2.03 (2.00–3.02) h
- AUC (AUCtau) [5, 7]: 10 623 ng h ml^−1
- CL/F [5, 7]: 76.4 L/h
- Cmax [5, 7]: 2390 ng/mL
- tmax ([5]; 800 mg BID, day 28 (steady state), n=2, median (min–max)): 1.52 (1.00–2.03) h
- CL/F [5, 8]: 47.4 ± 35.3 L/h
- Cmax [5, 8]: 3707 ± 1927 ng/mL
- Vdz/F [5, 8]: 342 ± 212 L
- t1/2 [5, 8]: 5.2 ± 1.7 h
- tmax ([5]; 1200 mg BID, day 1, n=3, median (min–max)): 3.00 (2.00–6.00) h
- AUC (AUCtau) [5, 9]: 21 230 ng h ml^−1
- CL/F [5, 9]: 88.4 L/h
- Cmax [5, 9]: 2750 ng/mL
- tmax ([5]; 1200 mg BID, day 28 (steady state), n=2, median (min–max)): 1.00 (1.00–1.00) h
- CL/F [5, 10]: 144 ± 104 L/h
- Cmax [5, 10]: 2361 ± 1765 ng/mL
- Vdz/F [5, 10]: 1038 ± 799 L
- t1/2 [5, 10]: 4.8 ± 0.5 h
- tmax ([5]; 1500 mg BID, day 1, n=6, median (min–max)): 4.00 (2.00–4.03) h
- CL/F [5, 11]: 286 ± 540 L/h
- Cmax [5, 11]: 3375 ± 2116 ng/mL
- tmax ([5]; 1500 mg BID, day 28 (steady state), n=6, median (min–max)): 3.99 (3.00–12.00) h
- CL/F [5, 12]: 3055 ± 5099 L/h
- t1/2 [5, 12]: 6.7 ± 1.7 h
- Cmax ([5]; 2100 mg BID, day 1, n=4, mean±s.d.): 2213 ± 2983 ng/mL
- tmax ([5]; 2100 mg BID, day 1, n=4, median (min–max)): 3.54 (2.00–4.08) h
- AUC (AUCtau) [5, 13]: 8467 ng·h/mL
- CL/F [5, 13]: 3087 L/h
- Cmax [5, 13]: 1236 ng/mL
- tmax ([5]; 2100 mg BID, day 28 (steady state), n=2, median (min–max)): 5.00 (4.00–6.00) h
- dose proportionality of pharmacokinetics ([5]; Cmax and AUC at steady state): dose proportional up to 1500 mg
- terminal half-life ([5]; all dose levels): 5 to 8 h
- peak concentration (average) ([5]; day 1, 1200 mg): ~4 μg ml^–1
- Cmax ([5]; day 1, 1500 and 2100 mg dose groups): ~2 μg ml^–1
- time to reach Cmax ([5]; first administration, capsule formulation (dose levels 1500 and 2100 mg)): up to 4 h
- time to reach Cmax ([5]; first administration, liquid formulation (dose levels 800 and 1200 mg)): 2 to 3 h
- time to reach Cmax ([5]; steady state (days 15 and 28), capsule formulation): 2 to 5 h
- time to reach Cmax ([5]; steady state (days 15 and 28), liquid formulation): 1 to 2 h
- IC50 (Fyn): 11 to 99 nM
- IC50 (Flt3): 100 to 1000 nM
